US20230190685A1, “FORMULATION” (UNION Therapeutics A/S, priority 2020, published 2023)

Experiments:
Format in all cases: cell-based
[1] = test system: SARS-CoV-2 (D614G strain); settings: read-out: EC50, replication of SARS-CoV-2
SARS-CoV-2 D614G strain = test system: SARS-CoV-2 D614G strain
[2] = test system: European D614G strain of SARS-CoV-2 (BavPat1/2020)

## O=C(Nc1ccc([N+](=O)[O-])cc1Cl)c1cc(Cl)ccc1O [niclosamide ethanolamine]
[1]
  EC50: 100 nM
SARS-CoV-2 D614G strain
  EC50: 60 nM
[2]
  reduction of intracellular viral RNA level versus non-treated control: 3 fold
[2]; read-out: EC50, apical infectious titer (TCID50)
  EC50: 960 nM
